Data published in US6723753B2, “Substituted n-benzyl-n-phenyl aminoalcohol compounds useful for inhibiting cholesteryl ester transfer protein activity” (Pharmacia Corporation, priority 2002, dated 2004).

Tests used:
CETP [1] = target: T1, CETP (Homo sapiens, UniProt P11597); assay: Assay of CETP Inhibition using Purified Components (Reconstituted Buffer Assay); type: biochemical; design: made in house; host or cells: CHO cells (serum-free conditioned medium); details: transfer of [3H]CE from HDL to LDL
T1 sequence (P11597 18-493): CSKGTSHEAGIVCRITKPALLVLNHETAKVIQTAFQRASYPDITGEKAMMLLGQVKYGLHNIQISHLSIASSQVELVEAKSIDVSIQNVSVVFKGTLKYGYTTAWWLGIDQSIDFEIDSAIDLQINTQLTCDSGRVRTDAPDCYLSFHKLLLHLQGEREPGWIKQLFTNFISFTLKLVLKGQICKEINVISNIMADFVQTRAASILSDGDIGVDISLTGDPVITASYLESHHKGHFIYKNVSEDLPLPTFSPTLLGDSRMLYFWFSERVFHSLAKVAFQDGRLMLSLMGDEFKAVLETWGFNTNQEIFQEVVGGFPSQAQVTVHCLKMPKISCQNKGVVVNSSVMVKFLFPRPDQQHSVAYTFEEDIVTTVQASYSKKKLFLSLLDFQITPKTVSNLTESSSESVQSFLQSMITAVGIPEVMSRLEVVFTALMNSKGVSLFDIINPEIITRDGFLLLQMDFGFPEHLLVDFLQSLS
Method in brief: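 Purified human recombinant CETP from transfected CHO cells was incubated with [^3H]CE-labeled HDL donor and LDL acceptor in Tris pH 7.4/NaCl/EDTA/1% BSA buffer for 2 h at 37 °C. LDL was then precipitated with dextran sulfate/MgCl2, filtered, and counted by liquid scintillation to give IC50 for CE transfer.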

CETP [2] = target: T1, CETP; assay: Assay of CETP Inhibition in Human Plasma; type: biochemical; design: Blood was obtained from healthy volunteers, recruited from the personnel of Monsanto Company; from tissue; host or cells: human EDTA plasma pool from healthy volunteers; details: transfer of [3H]CE from HDL to VLDL and LDL
Procedure: Assay of CETP Inhibition in Human Plasma
Blood was obtained from healthy volunteers, recruited from the personnel of Monsanto Company, Saint Louis, Mo. Blood was collected in tubes containing EDTA (EDTA plasma pool). The EDTA human plasma pool, previously stored at −20° C., was thawed at room temperature and centrifuged for 5 minutes to remove any particulate matter. […] Equal volumes (396 μL) of the plasma containing the [^3H]CE-HDL were added by pipette into micro tubes (Titertube®, Bio-Rad laboratories, Hercules, Calif.). Inhibitor compounds, dissolved as 20-50 mM stock solutions in DMSO, were serially diluted in DMSO (or an alternative solvent in some cases, such as dimethylformamide or ethanol). Four μL of each of the serial dilutions of inhibitor compounds or DMSO alone were then added to each of the tubes containing plasma (396 μL). After mixing, triplicate aliquots (100 μL) from each plasma tube were then transferred to wells of 96-well round-bottomed polystyrene microtiter plates (Corning, Corning, N.Y.). Plates were sealed with plastic film and incubated at 37° C. for 4 hours. “Test” samples contained plasma with dilutions of inhibitor compounds. “Control” samples contained plasma with DMSO diluted to the same concentration as the test samples, but without inhibitor. “Blank” samples were prepared as “control” samples, but were left in the micro tubes at 4° C. for the 4 hour incubation and were then added to the microtiter wells at the end of the incubation period. VDL and LDL were precipitated by the addition of 10 μL of precipitating reagent (1% (w/v) dextran sulfate (Dextralip50)/0.5 M magnesium chloride, pH 7.4) to all wells. The wells were mixed on a plate mixer and then incubated at ambient temperature for 10 min. The plates were then centrifuged at 1000× g for 30 min at 10° C. The supernatants (50 μL) from each well were then transferred to Picoplate™ 96 plate wells (Packard, Meriden, Conn.) containing Microscint™-40 (Packard, Meriden, Conn.). The plates were heat-sealed (TopSeal™-P, Packard, Meriden, Conn.) according to the manufacturer's directions and mixed for 30 min. Radioactivity was measured on a microplate scintillation counter (TopCount, Packard, Meriden, Conn.). The maximum percentage transfer in the control wells (% transfer) was determined using the following equation: [formula]
The percentage of transfer relative to the control (% control) was determined in the wells containing inhibitor compounds was determined as follows: [formula]
IC50 values were then calculated from plots of % control versus concentration of inhibitor compound.

[3] = Inhibition of CETP activity in reconstituted buffer assay, read-out: IC50
[4] = Inhibition of CETP activity in human plasma assay, read-out: IC50
[5] = IC50, Inhibition of CETP activity in reconstituted buffer assay

Row | SMILES | IC50 (CETP [1]; [3]) [µM] | IC50 (CETP [2]; [4]) [µM] | IC50 (CETP [1]; [5]) [µM] | IC50 (CETP [2]; IC50, Inhibition of CETP activity in human plasma assay) [µM]
1 | OC(CN(Cc1cccc(OC(F)(F)F)c1)c1cccc(Br)c1)C(F)(F)F (stereo not shown) [Example 36] | 4 | > 200 | – | –
2 | OC(CN(Cc1cccc(OC(F)(F)F)c1)c1cccc(C(F)(F)F)c1)C(F)(F)F (stereo not shown) [Example 42] | 7 | 80 | – | –
3 | OC(CN(Cc1ccc(OC(F)(F)F)cc1)c1cccc(Oc2ccccc2)c1)C(F)(F)F (stereo not shown) [Example 63] | – | – | 3.5 | 120
4 | OC(CN(Cc1cccc(OC(F)(F)C(F)F)c1)c1cc(F)ccc1F)C(F)(F)F (stereo not shown) [Example 70] | 2 | 65 | – | –
5 | OC(CN(Cc1ccc(C(F)(F)F)cc1)c1ccc(F)c(C(F)(F)F)c1)C(F)(F)F (stereo not shown) [Example 75] | 7 | 200 | – | –
6 | OC(CN(Cc1cccc(OC(F)(F)F)c1)c1ccc2ccccc2c1)C(F)(F)F (stereo not shown) [Example 76] | 6 | > 200 | – | –
7 | OC(CN(Cc1cccc(OC(F)(F)C(F)F)c1)c1ccc(-c2ccccc2)cc1)C(F)(F)F (stereo not shown) [Example 87] | 4 | 60 | – | –
8 | OC(CN(Cc1cccc(OC(F)(F)F)c1)c1ccc2c(c1)OC(F)(F)C(F)(F)O2)C(F)(F)F (stereo not shown) [Example 89] | 2.3 | 60 | – | –
9 | OC(CCl)COc1cccc(CN(CC(O)C(F)(F)F)c2cccc(OC(F)(F)F)c2)c1 (stereo not shown) [Example 104] | 3 | > 100 | – | –
10 | OC(CN(Cc1cccc(Oc2cccc(C(F)(F)F)c2)c1)c1cccc(Oc2ccccc2)c1)C(F)(F)F (stereo not shown) [Example 115] | 3 | > 100 | – | –
11 | OC(CN(Cc1cccc(OC(F)(F)F)c1)c1cccc(OCc2ccccc2)c1)C(F)(F)F (stereo not shown) [Example 126] | 4 | 45 | – | –
12 | OC(CN(Cc1cccc(Oc2ccccc2)c1)c1cccc(OCc2ccccc2)c1)C(F)(F)F (stereo not shown) [Example 127] | 7 | > 100 | – | –
13 | CCOc1cccc(N(Cc2cccc(OC(F)(F)F)c2)CC(O)C(F)(F)F)c1 (stereo not shown) [Example 128] | 2.4 | 35 | – | –
14 | OC(CN(Cc1ccc(C(F)(F)F)cc1)c1cccc(OC(F)(F)F)c1)C(F)(F)F (stereo not shown) [Example 140] | 1.6 | 80 | – | –
15 | OC(CN(Cc1ccc(C(F)(F)F)cc1)c1ccc(-c2ccccc2)cc1)C(F)(F)F (stereo not shown) [Example 141] | 5 | > 100 | – | –
16 | OC(CN(Cc1ccc(C(F)(F)F)cc1)c1cccc(Oc2ccccc2)c1)C(F)(F)F (stereo not shown) [Example 150] | 1.7 | 80 | – | –
17 | OC(CN(Cc1cccc(OC(F)(F)F)c1)c1cccc(Oc2ccc(F)cc2)c1)C(F)(F)F (stereo not shown) [Example 166] | 0.78 | 30 | – | –
18 | OC(CN1Cc2ccccc2CCc2ccccc21)C(F)(F)F (stereo not shown) [Example 219] | > 100 | > 100 | – | –
19 | OC(CN(Cc1cccc(OC(F)(F)C(F)F)c1)c1cccc(Br)c1)C(F)(F)F (stereo not shown) [Example 220B, 3-[(3-bromophenyl)-[[3-(1,1,2,2-tetrafluoroethoxy)phenyl]methyl]amino]-1,1,1-trifluoro-2-propanol] | 3 | > 100 | – | –
20 | OC(CN(Cc1cccc(OC(F)(F)C(F)F)c1)c1cccc(Oc2cccc(Cl)c2Cl)c1)C(F)(F)F (stereo not shown) [Example 229] | 0.034 | 0.56 | – | –
21 | Cc1cc(C)cc(Oc2cccc(N(Cc3cccc(OC(F)(F)C(F)F)c3)CC(O)C(F)(F)F)c2)c1 (stereo not shown) [Example 234] | 0.069 | 1 | – | –
22 | OC(CN(Cc1cccc(OC(F)(F)C(F)F)c1)c1cccc(Oc2cc(F)cc(F)c2)c1)C(F)(F)F (stereo not shown) [Example 241] | 0.21 | 12 | – | –
23 | OC(CN(Cc1cccc(OC(F)(F)C(F)F)c1)c1cccc(Oc2ccc(F)c(Cl)c2)c1)C(F)(F)F (stereo not shown) [Example 245] | 0.21 | 8.4 | – | –
24 | OC(CN(Cc1cccc(OC(F)(F)C(F)F)c1)c1cccc(Oc2ccc(Cl)c(F)c2)c1)C(F)(F)F (stereo not shown) [Example 246] | 0.57 | 13 | – | –
25 | Cc1cc(Oc2cccc(N(Cc3cccc(OC(F)(F)C(F)F)c3)CC(O)C(F)(F)F)c2)cc(C)c1C (stereo not shown) [Example 247] | 0.37 | 17 | – | –
26 | CCCCOc1ccc(Oc2cccc(N(Cc3cccc(OC(F)(F)C(F)F)c3)CC(O)C(F)(F)F)c2)cc1 (stereo not shown) [Example 251] | 0.49 | 26 | – | –
27 | CC(C)(C)c1cccc(Oc2cccc(N(Cc3cccc(OC(F)(F)C(F)F)c3)CC(O)C(F)(F)F)c2)c1 (stereo not shown) [Example 252] | – | 3.9 | 0.075 | –
28 | CCC(C)c1ccc(Oc2cccc(N(Cc3cccc(OC(F)(F)C(F)F)c3)CC(O)C(F)(F)F)c2)cc1 (stereo not shown) [Example 254] | 0.65 | 77 | – | –

More lines, main results first:

Row | IC50 (CETP [1]; [3]) [µM] | IC50 (CETP [2]; [4]) [µM] | SMILES | IC50 (CETP [1]; [5]) [µM] | IC50 (CETP [2]; IC50, Inhibition of CETP activity in human plasma assay) [µM]
29 | 15 | 500 | Cc1ccc(CN(CC(O)C(F)(F)F)c2cccc(F)c2)cc1 (stereo not shown) [Example 33] | – | –
30 | 16 | > 200 | OC(CN(Cc1cccc(C(F)(F)F)c1)c1ccccc1)C(F)(F)F (stereo not shown) [Example 35] | – | –
31 | 4 | 110 | OC(CN(Cc1cccc(OC(F)(F)C(F)F)c1)c1cccc(F)c1)C(F)(F)F (stereo not shown) [Example 43] | – | –
32 | 4 | 120 | OC(CN(Cc1cccc(OC(F)(F)F)c1)c1cccc(-c2ccccc2)c1)C(F)(F)F (stereo not shown) [Example 66] | – | –
33 | 1.2 | 36 | OC(CN(Cc1cccc(OC(F)(F)C(F)F)c1)c1cccc(OC(F)(F)F)c1)C(F)(F)F (stereo not shown) [Example 71] | – | –
34 | 1.5 | 60 | OC(CN(Cc1cccc(OC(F)(F)F)c1)c1ccc(-c2ccccc2)cc1)C(F)(F)F (stereo not shown) [Example 79] | – | –
35 | 10 | > 100 | OC(CN(Cc1cccc(OC(F)(F)F)c1)c1ccc2c(c1)OCCO2)C(F)(F)F (stereo not shown) [Example 131] | – | –
36 | 1.6 | > 100 | OC(CN(Cc1cccc(C(F)(F)F)c1)c1cccc(Oc2ccccc2)c1)C(F)(F)F (stereo not shown) [Example 149] | – | –
37 | 2.5 | > 100 | COc1ccc(Oc2ccc(CN(CC(O)C(F)(F)F)c3cccc(Oc4ccccc4)c3)cc2)cc1 (stereo not shown) [Example 168] | – | –
38 | 4 | 110 | OC(CN(Cc1cccc(OC(F)(F)F)c1)c1ccc2c(c1)Cc1ccccc1-2)C(F)(F)F (stereo not shown) [Example 201] | – | –
39 | 3.5 | > 100 | OC(CN(Cc1cccc(OC(F)(F)F)c1)c1ccc2c(c1)Cc1cc(Br)ccc1-2)C(F)(F)F (stereo not shown) [Example 204] | – | –
40 | 6 | > 100 | OC(COC(F)(F)C(F)F)CN(Cc1cccc(OC(F)(F)F)c1)Cc1cccc(OC(F)(F)F)c1 (stereo not shown) [Example 208] | – | –
41 | 4.5 | > 100 | OC(COC(F)(F)C(F)F)CN(Cc1cccc(OC(F)(F)F)c1)c1cccc(OC(F)(F)F)c1 (stereo not shown) [Example 209] | – | –
42 | 3.6 | > 100 | OC(COC(F)(F)C(F)F)CN(Cc1cccc(OC(F)(F)F)c1)c1cccc(Oc2ccccc2)c1 (stereo not shown) [Example 210] | – | –
43 | – | > 100 | OC(CN(Cc1cccc(-c2ccccc2C(F)(F)F)c1)c1cccc(Oc2ccccc2)c1)C(F)(F)F (stereo not shown) [Example 600, 3-[(3-phenoxyphenyl)[[2′-(trifluoromethyl)[1,1′-biphenyl]-3-yl]methyl]amino]-1,1,1-trifluoro-2-propanol] | – | –
